Reference: ChEMBL document CHEMBL1136974, “Selective inhibitors of tumor progression loci-2 (Tpl2) kinase with potent inhibition of TNF-alpha production in human whole blood” (Bioorg Med Chem Lett, 2009)

Legend:
[1] = Selectivity of Tpl2 to PKA
[2] = Selectivity of Tpl2 to PKC
[3] = Selectivity of Tpl2 to p38
[4] = Selectivity of Tpl2 to Src
[5] = Selectivity of Tpl2 to CAMK2
[6] = Selectivity of Tpl2 to MK2

Measured: fold change (FC)

N#Cc1cnc2c(Cl)cc(NCc3cn(CCN4CCCCCC4)nn3)cc2c1Nc1ccc(F)c(Cl)c1
10: all assays above

CCN1CCC(CCn2cc(CNc3cc(Cl)c4ncc(C#N)c(Nc5ccc(F)c(Cl)c5)c4c3)nn2)CC1
10: all assays above

CC(C)(C)n1cc(CNc2cc(Br)c3ncc(C#N)c(Nc4ccc(F)c(Cl)c4)c3c2)nn1
10: all assays above

N#Cc1cnc2c(Cl)cc(NCc3cn(CCN4CCOCC4)nn3)cc2c1Nc1ccc(F)c(Cl)c1
10: all assays above

N#Cc1cnc2c(Br)cc(NCc3c[nH]nn3)cc2c1Nc1ccc(F)c(Cl)c1
not listed: [5]
10: all other assays above

N#Cc1cnc2c(Cl)cc(NCc3cn(Cc4ccccc4)nn3)cc2c1Nc1ccc(F)c(Cl)c1
10: all assays above

N#Cc1cnc2c(Cl)cc(NCc3cn(CCN4CCCCC4)nn3)cc2c1Nc1ccc(F)c(Cl)c1
10: all assays above

N#Cc1cnc2c(Cl)cc(NCc3cn(Cc4ccccn4)nn3)cc2c1Nc1ccc(F)c(Cl)c1
10: all assays above

CN(C)CCn1cc(CNc2cc(Cl)c3ncc(C#N)c(Nc4ccc(F)c(Cl)c4)c3c2)nn1
10: all assays above

N#Cc1cnc2c(Cl)cc(NCc3cn(-c4ccccc4)nn3)cc2c1Nc1ccc(F)c(Cl)c1
10: all assays above

N#Cc1cnc2c(Cl)cc(NCc3cn(CCCN)nn3)cc2c1Nc1ccc(F)c(Cl)c1
10: all assays above

CC(C)N1CCC(n2cc(CNc3cc(Cl)c4ncc(C#N)c(Nc5ccc(F)c(Cl)c5)c4c3)nn2)CC1
10: all assays above
